Where a name gives a salt, the structure may show the parent alone.
Key:
acute toxicity (LD 50) = settings: in vivo, ip
From the text: To illustrate the invention, there are shown in table IV below, the results obtained in these two tests and the acute toxicity (LD 50) of some compounds of formula (I).

mice [1] = assay: analgesic activity, phenylbenzoquinone test (E. SIEGMUND); assay type: in vivo; settings: Mus musculus, ip, read-out: ED 50 analgesic property
From the text: Soc. Exp. Biol. and Med. 95, 729, (1957).

mice [2] = assay: antidepressive activity, antagonism to ptosis after intravenous injection of reserpine; assay type: in vivo; settings: Mus musculus, ip, 1 h, i.p., ptosis observed an hour after i.v. reserpine 2 mg/kg, read-out: ED 50 antidepressive property
From the text: GOURET and J. THOMAS in J. Pharmacol. (Paris) (1973), 4, 401.

| SMILES | LD50 (acute toxicity (LD 50)) | ED50 (mice [1]) | ED50 (mice [2]) |
| --- | --- | --- | --- |
| CN(C)CCC1COc2ccccc2C(c2ccccc2)=N1 (centres unmarked) [compound 45] | 160 mg/kg | 16.5 mg/kg | 12 mg/kg |
| CN(C)CCC1Cc2ccccc2C(c2cccc(F)c2)=N1 (centres unmarked) [compound 23] | 55 mg/kg | 2 mg/kg | 2 mg/kg |
| CN1CCN(CC2Cc3ccccc3C(c3ccccc3)=N2)CC1 (centres unmarked) [compound 7] | 170 mg/kg | 6.2 mg/kg | 10 mg/kg |
| CN(C)CC1COc2ccccc2C(c2ccccc2Cl)=N1 (centres unmarked) [compound 42] | 70 mg/kg | 3.5 mg/kg | 7 mg/kg |
| CN(C)CCC1Cc2ccccc2C(c2ccccc2)=N1 (centres unmarked) [compound 17] | 65 mg/kg | 6 mg/kg | 1.5 mg/kg |
| CN(C)CC1COc2ccccc2C(c2ccccc2)=N1 (centres unmarked) [compound 40] | 80 mg/kg | 3 mg/kg |  |
| COc1ccc2c(c1)C(c1ccccc1)=NC(CN1CCN(C)CC1)C2 (centres unmarked) [compound 100] | 140 mg/kg | 30 mg/kg | 9 mg/kg |
| CN(C)CC1Cc2ccc(Cl)cc2C(c2ccccc2F)=N1 (centres unmarked) [Code Number 9] | 52 mg/kg | 3 mg/kg | 4.3 mg/kg |
| CN(C)CC1Cc2ccc(F)cc2C(c2ccccc2)=N1 (centres unmarked) [compound 10] | 60 mg/kg | 4 mg/kg | 2.8 mg/kg |
| CN(C)CC1Cc2ccccc2C(c2ccccc2F)=N1 (centres unmarked) [Code Number 8] | 35 mg/kg | 2.3 mg/kg | 1.1 mg/kg |
| CN(C)CCC1Cc2ccccc2C(c2cccc(Cl)c2)=N1 (centres unmarked) [compound 26] | 65 mg/kg | 7.6 mg/kg | 5.4 mg/kg |
| CN(C)CCC1Cc2ccccc2C(c2ccccc2Cl)=N1 (centres unmarked) [compound 25] | 60 mg/kg | 3.8 mg/kg | 3.7 mg/kg |
| Cc1ccc2c(c1)C(c1ccccc1)=NC(CN(C)C)C2 (centres unmarked) [compound 12] | 50 mg/kg | 5 mg/kg | 15 mg/kg |
| CN(C)CCC1Cc2ccccc2C(c2ccc(F)cc2)=N1 (centres unmarked) [compound 24] | 61 mg/kg | 8.4 mg/kg | 2.1 mg/kg |
| CN(C)CCC1Cc2ccccc2C(c2ccc([N+](=O)[O-])cc2)=N1 (centres unmarked) [compound 35] | 80 mg/kg | 8 mg/kg | 8 mg/kg |
| CN(C)CCC1C=C(c2ccccc2)c2ccccc2C1 (centres unmarked) [Code Number 2] | 110 mg/kg | 7.3 mg/kg | 1 mg/kg |
| CN1CCN(CCC2Cc3c(Cl)cccc3C(c3ccccc3)=N2)CC1 (centres unmarked) [compound 106] | 145 mg/kg | 12 mg/kg |  |
| CN(C)CCC1Cc2c(Cl)cccc2C(c2ccccc2)=N1 (centres unmarked) [compound 18] | 70 mg/kg | 1 mg/kg |  |
| Cc1ccc2c(c1)C(c1ccccc1)=NC(CN1CCOCC1)C2 (centres unmarked) [compound 98] | 125 mg/kg | 30 mg/kg |  |

| SMILES | LD50 (acute toxicity (LD 50)) | ED50 (mice [1]) | ED50 (mice [2]) |
| --- | --- | --- | --- |
| COc1cc2c(cc1OC)C(c1ccccc1)=NC(CCN(C)C)C2 (centres unmarked) [compound 105] | 165 mg/kg | 12 mg/kg | 30 mg/kg |
| CN(C)CC1COc2ccccc2C(c2ccc(Cl)cc2)=N1 (centres unmarked) [compound 44] | 130 mg/kg | 9.8 mg/kg | 10 mg/kg |
| CN(C)CC1COc2ccccc2C(c2cccc(F)c2)=N1 (centres unmarked) [compound 87] | 100 mg/kg |  | 30 mg/kg |
| COc1ccccc1C1=NC(CCN(C)C)Cc2ccccc21 (centres unmarked) [compound 28] | 42 mg/kg | 10 mg/kg | 3 mg/kg |
| CN(C)CCCC1Cc2ccccc2C(c2ccccc2)=N1 (centres unmarked) [compound 38] | 85 mg/kg |  | 3.4 mg/kg |
| CNCCC1Cc2ccccc2C(c2ccccc2F)=N1 (centres unmarked) [compound 21] | 70 mg/kg | 10 mg/kg | 1.2 mg/kg |
| COc1ccc(C2=NC(CCN(C)C)Cc3ccccc32)cc1 (centres unmarked) [compound 30] | 70 mg/kg |  | 4.2 mg/kg |
| COc1cc2c(cc1OC)C(c1ccccc1)=NC(CN(C)C)C2 (centres unmarked) [compound 14] | 135 mg/kg | 15 mg/kg |  |
| CN(C)CCCC1Cc2ccccc2C(c2ccccc2F)=N1 (centres unmarked) [compound 39] | 100 mg/kg | 1.9 mg/kg | 0.7 mg/kg |
| Cc1ccc2c(c1)C(c1ccccc1)=NC(CN1CCN(C)CC1)C2 (centres unmarked) [compound 99] | 130 mg/kg | 30 mg/kg |  |
| CN(C)CCC1Cc2ccccc2C(c2ccccc2Br)=N1 (centres unmarked) [compound 36] | 77 mg/kg |  | 2.4 mg/kg |
| CCN(CC)CC1Cc2ccc(C)cc2C(c2ccccc2)=N1 (centres unmarked) [compound 95] | 45 mg/kg | 10 mg/kg |  |
| CNCCC1Cc2ccccc2C(c2ccccc2)=N1 (centres unmarked) [compound 16] | 65 mg/kg | 10 mg/kg | 8.2 mg/kg |
| NCCC1Cc2ccccc2C(c2ccccc2F)=N1 (centres unmarked) [compound 20] | 62 mg/kg | 3.7 mg/kg | 1.8 mg/kg |
| CN(C)CCC1Cc2ccccc2C(c2ccccc2C(F)(F)F)=N1 (centres unmarked) [compound 103] | 70 mg/kg |  | 3.8 mg/kg |
| CN(C)CCC1Cc2ccc(Cl)cc2C(c2ccccc2)=N1 (centres unmarked) [compound 19] | 95 mg/kg | 4 mg/kg | 3.8 mg/kg |
| CN(C)CC1Cc2ccc(Cl)cc2C(c2ccccc2)=N1 (centres unmarked) [Code Number 11] | 37 mg/kg | 3 mg/kg | 0.8 mg/kg |
| Cc1cccc(C2=NC(CCN(C)C)Cc3ccccc32)c1 (centres unmarked) [compound 32] | 67 mg/kg | 6.6 mg/kg | 6.6 mg/kg |
| CN(C)CCC1Cc2ccccc2C(c2cccnc2)=N1 (centres unmarked) [compound 108] | 90 mg/kg | 7.6 mg/kg | 12 mg/kg |

| SMILES | LD50 (acute toxicity (LD 50)) | ED50 (mice [1]) | ED50 (mice [2]) |
| --- | --- | --- | --- |
| CN(C)CCC1Cc2ccccc2C(c2ccc(Cl)cc2)=N1 (centres unmarked) [compound 27] | 70 mg/kg | 11 mg/kg | 4.4 mg/kg |
| CN(C)CC1COc2ccccc2C(c2ccccc2F)=N1 (centres unmarked) [compound 41] | 62 mg/kg | 7.2 mg/kg | 3.5 mg/kg |
| CN(C)CCC1Cc2ccccc2C(c2ccccc2F)=N1 (centres unmarked) [compound 22] | 70 mg/kg | 6.2 mg/kg | 0.6 mg/kg |
| Cc1ccccc1C1=NC(CCN(C)C)Cc2ccccc21 (centres unmarked) [compound 31] | 50 mg/kg | 5.6 mg/kg | 1.8 mg/kg |
| CN(C)CCC1C=C(c2ccccc2F)c2ccccc2C1 (centres unmarked) [compound 101] | 93 mg/kg | 4.3 mg/kg | 0.4 mg/kg |
| CN(C)CCC1Cc2ccccc2C(C2CCCCC2)=N1 (centres unmarked) [compound 37] | 82 mg/kg | 10 mg/kg | 10 mg/kg |
| CN(C)CCC1Cc2ccccc2C(c2cccc(C(F)(F)F)c2)=N1 (centres unmarked) [compound 104] | 62 mg/kg | 4.3 mg/kg |  |
| CN(C)CC1C=C(c2ccccc2)c2ccccc2C1 (centres unmarked) [Code Number 1, 3-Dimethylaminomethyl 1-phenyl 3,4-dihydro naphthalene, oxalate] | 62 mg/kg | 6 mg/kg | 10 mg/kg |
| CN1CCN(CC2Cc3c(Cl)cccc3C(c3ccccc3)=N2)CC1 (centres unmarked) [compound 94] | 140 mg/kg | 22 mg/kg |  |
| Cc1ccc(C2=NC(CCN(C)C)Cc3ccccc32)cc1 (centres unmarked) [compound 33] | 70 mg/kg | 8.8 mg/kg | 2.7 mg/kg |
| CN(C)CC1Cc2ccccc2C(c2ccccc2)=N1 (centres unmarked) [compound 6] | 41 mg/kg | 5 mg/kg | 3.5 mg/kg |
| CN(C)CC1COc2ccccc2C(c2cccc(Cl)c2)=N1 (centres unmarked) [compound 43] | 65 mg/kg | 10 mg/kg | 3 mg/kg |
| COc1ccc2c(c1)C(c1ccccc1)=NC(CN(C)C)C2 (centres unmarked) [compound 13] | 65 mg/kg | 3 mg/kg |  |
| CN(C)CCC1Cc2ccccc2C(c2ccccc2[N+](=O)[O-])=N1 (centres unmarked) [compound 34] | 77 mg/kg | 3.4 mg/kg | 1 mg/kg |
| CN(C)CCC1Cc2ccccc2C(c2ccccn2)=N1 (centres unmarked) [compound 86] | 94 mg/kg | 10 mg/kg | 4 mg/kg |
| NCCC1Cc2ccccc2C(c2ccccc2)=N1 (centres unmarked) [compound 15] | 67 mg/kg | 10 mg/kg | 0.9 mg/kg |
| Cc1ccc2c(c1)C(c1ccccc1)=NC(CN1CCCCC1)C2 (centres unmarked) [compound 97] | 52 mg/kg | 10 mg/kg |  |
| COc1cccc(C2=NC(CCN(C)C)Cc3ccccc32)c1 (centres unmarked) [compound 29] | 78 mg/kg | 10 mg/kg | 6.8 mg/kg |

— US4386090A, “Nitrogen containing 2,3-dihydro naphthalenes, compositions and use” (Delalande S.A., priority 1980, dated 1983)
